Reference: patent US7674620B2, “Derivation of terminally differentiated dopaminergic neurons from human embryonic stem cells” (Reliance Life Sciences Pvt. Ltd., priority 2003, dated 2010)

How the values were obtained:
[1] = test system: embryonic stem cell-derived dopaminergic neurons; assay: Intracellular dopamine in cell lysates by RP-HPLC; type: cell-based, human; details: for Dopamine concentration in cell lysates by HPLC: 56 mM KCl
Description: One definitive characteristic of a dopaminergic neuron is the production of dopamine. Therefore, the functional capacity of embryonic stem cell-derived dopaminergic neurons to produce dopamine was evaluated by directly measuring the intracellular dopamine levels using Reverse Phase HPLC (RP-HPLC). The concentration of dopamine detected in each sample was determined by comparison with a standard solution of dopamine injected into the column immediately before and after each experiment.
(§1) To begin, cells were collected at different stages of the disclosed method: undifferentiated ES cells, embryoid bodies, Nestin-positive neuroprogenitor cells, NCAM-positive cells, and differentiated cells isolated after 7, 22, and 37 days of differentiation in Neurobasal medium. Before collection, the cells differentiated in Neurobasal medium were first stimulated to induce dopamine secretion by the addition of 56 mM KCl in HBSS for 15 minutes. Approximately 5×10^6 cells were trypsinised and pelleted by centrifugation. The cells were then sonicated in cold 1N perchloric acid with antioxidants (0.2 g/l sodium metabisulphite), and centrifuged at 15,000 rpm/min for 20 minutes at 4° C. The supematent was extracted and stored at −70° C. for subsequent determination of the intracellular dopamine concentration by RP-HPLC. Dopamine levels were determined in the cell lysates and culture supematent (48 hrs after the last medium change). The culture supematent was immediately stabilized with 7.5% orthophosphoric acid and sodium metabisulphite.

[2] = test system: embryonic stem cell-derived dopaminergic neurons; assay: Dopamine release into conditioned medium by RP-HPLC; type: cell-based, human; details: 56 mM for 15 minutes, 7, 22, 37 days of differentiation
Description: The cells were stimulated with 56 mM KCl for 15 minutes to induce secretion of dopamine; the culture supernatant was stabilized with 7.5% orthrophosphoric acid and sodium metabisulphite before analysis by RP-HPLC.
as §1

[3] = test system: embryonic stem cell-derived dopaminergic neurons; assay: Intracellular dopamine in cell lysates by RP-HPLC; type: cell-based, human; details: cell cultures incubated with the neurotoxin
[4] = test system: neuroprogenitor cells derived from human embryonic stem cells; assay: Differentiation of neuroprogenitor cells into TH positive (dopaminergic) neurons, immunofluorescence; type: cell-based; details: present in the Neurobasal medium
Excerpt: Development of dopaminergic neurons in vivo depends on the regulated action of extracellular signaling molecules. These molecules activate a cascade of transcription factors with lineage-restricted expression. These transcription factors are responsible for increasing the expression of a specific set of genes involved in the development of the dopaminergic phenotype. To encourage the expanded neuroprogenitors cells generated using the above protocol into functional dopaminergic neurons, the growth factors bFGF and EGF were first withdrawn from the cells. Next, differentiation of the neuroprogenitors cells into dopaminergic neurons was induced by culturing the cells in Neurobasal medium for 30-50 days. […]
The differentiated neuronal cell types generated according to the present disclosure were evaluated both by the overall morphology of the cells, as well as the phenotypes identified by immunoflourescence. […]
The differentiated cells were also analyzed by double-labeling the cells with primary antibodies to TH (green), along with MAP-2, DAT, Nurr-1, β-Tubulin, FITC-labeled secondary antibodies (Texas red) respectively (FIG. 8). […] The cell density of dopaminergic neurons was quantified by counting the numbers of TH-positive cells and MAP-2-positive cells per field in randomly selected fields using a 40× objective lens. The percent proportion of TH-positive cells was calculated (FIG. 9). […]

Question: With `[Cl-].[K+]` [KCl] as the molecule, how does the “Dopamine concentration in cell lysates by HPLC” value (“Dopamine concentration” for short) ([1]; 7 d, line #3, after 'Addition of growth factors') read?
Answer: 5.5 µg/mL

Question: And the “Dopamine concentration” value ([1]; 7 d, line #5, after 'N-acetyl cysteine along with growth factors')?
Answer: 8.8 µg/mL

Question: What about the “Dopamine concentration” value ([1]; 7 d, line #7, after 'Ascorbic acid along with growth factors') of the same molecule?
Answer: 6.9 µg/mL

Question: And the “Dopamine concentration” value ([1]; 22 d, line #3, after 'Addition of growth factors')?
Answer: 22 µg/mL

Question: And the “Dopamine concentration” value ([1]; 22 d, line #5, after 'N-acetyl cysteine along with growth factors')?
Answer: 30.9 µg/mL

Question: What about the “Dopamine concentration” value ([1]; 22 d, line #7, after 'Ascorbic acid along with growth factors') of the same molecule?
Answer: 5.5 µg/mL

Question: What about the “Dopamine concentration” value ([1]; 37 d, line #3, after 'Addition of growth factors') of the same molecule?
Answer: 7.2 µg/mL

Question: What about the “Dopamine concentration” value ([1]; 37 d, line #5, after 'N-acetyl cysteine along with growth factors') of the same molecule?
Answer: 10 µg/mL

Question: And the “Dopamine concentration” value ([1]; 37 d, line #7, after 'Ascorbic acid along with growth factors')?
Answer: 10 µg/mL

Question: What about the “dopamine release into the conditioned medium (FIG. 14)” value [2] of the same molecule?
Answer: causes dopamine release

Question: And the “dopamine release into the conditioned medium (FIG. 14)” value ([2]; listed as KCL)?
Answer: increase

Question: Which “intracellular dopamine in cell lysates of treated cells (FIG. 13)” value (“intracellular dopamine in cell lysates” for short) ([1]; 7 days of differentiation) does the source give for `CN1CC=C(c2ccccc2)CC1.Cl` [MPTP, N-methyl-4-phenyl 1,2,3,6-tetrahydropyridine hydrochloride] here?
Answer: No dopamine was detected

Question: What about the “intracellular dopamine in cell lysates” value ([1]; 22 days of differentiation) of the same molecule?
Answer: No dopamine was detected

Question: And the “intracellular dopamine in cell lysates” value ([1]; 37 days of differentiation)?
Answer: reduced

Question: What about the “dopamine in cell lysates of incubated cell cultures by RP-HPLC” value [3] of the same molecule?
Answer: no dopamine was detected

Question: Which “effect on amount of TH positive neurons” value [4] does the source give for “IL-1β: Interleukin-1β, growth factor in the Neurobasal medium” here?
Answer: appears to increase the amount of TH positive neurons
